Experimental data reported in the supplement of paper PMC11451515.

System: SEM cells
Assay: cell viability relative to DMSO control; higher = less cytotoxic
Settings: 48 h
Method in brief: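 Cells were incubated for 48 h at 37°C before CellTiter-Glo One luminescence was read. The cells were NOMO1 or SEM (500 cells/well) or P12-Ichikawa (1000 cells/well) leukemia cells, adapted for at least four passages in each medium and seeded in 1536-well plates (5 μl). Dosing used library compounds in DMSO applied by pin over 11 threefold points, 47 μM to 0.79 nM. Viability is the per-plate percentage of DMSO wells, with cell-free wells as background.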

[1] = HPLM + 10% dialyzed FBS, 0.000781 µM
[2] = HPLM + 10% dialyzed FBS, 0.00234 µM
[3] = HPLM + 10% dialyzed FBS, 0.00702 µM
[4] = HPLM + 10% dialyzed FBS, 0.0211 µM
[5] = HPLM + 10% dialyzed FBS, 0.0632 µM
[6] = HPLM + 10% dialyzed FBS, 0.19 µM
[7] = HPLM + 10% dialyzed FBS, 0.569 µM
[8] = HPLM + 10% dialyzed FBS, 1.71 µM
[9] = HPLM + 10% dialyzed FBS, 5.12 µM
[10] = HPLM + 10% dialyzed FBS, 15.4 µM
[11] = HPLM + 10% dialyzed FBS, 46.1 µM
[12] = RPMI 5 mM glucose + 10% FBS, 0.000781 µM
[13] = RPMI 5 mM glucose + 10% FBS, 0.00234 µM
[14] = RPMI 5 mM glucose + 10% FBS, 0.00702 µM
[15] = RPMI 5 mM glucose + 10% FBS, 0.0211 µM
[16] = RPMI 5 mM glucose + 10% FBS, 0.0632 µM
[17] = RPMI 5 mM glucose + 10% FBS, 0.19 µM
[18] = RPMI 5 mM glucose + 10% FBS, 0.569 µM
[19] = RPMI 5 mM glucose + 10% FBS, 1.71 µM
[20] = RPMI 5 mM glucose + 10% FBS, 5.12 µM
[21] = RPMI 5 mM glucose + 10% FBS, 15.4 µM
[22] = RPMI 5 mM glucose + 10% FBS, 46.1 µM
[23] = RPMI 5 mM glucose + 10% dialyzed FBS, 0.000781 µM
[24] = RPMI 5 mM glucose + 10% dialyzed FBS, 0.00234 µM
[25] = RPMI 5 mM glucose + 10% dialyzed FBS, 0.00702 µM
[26] = RPMI 5 mM glucose + 10% dialyzed FBS, 0.0211 µM
[27] = RPMI 5 mM glucose + 10% dialyzed FBS, 0.0632 µM
[28] = RPMI 5 mM glucose + 10% dialyzed FBS, 0.19 µM
[29] = RPMI 5 mM glucose + 10% dialyzed FBS, 0.569 µM
[30] = RPMI 5 mM glucose + 10% dialyzed FBS, 1.71 µM
[31] = RPMI 5 mM glucose + 10% dialyzed FBS, 5.12 µM
[32] = RPMI 5 mM glucose + 10% dialyzed FBS, 15.4 µM
[33] = RPMI 5 mM glucose + 10% dialyzed FBS, 46.1 µM

## CC(O)C1C2C(C)\C(=C(/N2C1=O)C(O)=O)SC3CNC(C3)C(=O)N(C)C (stereo not given)
[1]
  cell viability: 79.6%
[2]
  cell viability: 64.9%
[3]
  cell viability: 84%
[4]
  cell viability: 88.8%
[5]
  cell viability: 90.4%
[6]
  cell viability: 81.4%
[7]
  cell viability: 86.7%
[8]
  cell viability: 82.3%
[9]
  cell viability: 90.7%
[10]
  cell viability: 77.9%
[11]
  cell viability: 78.5%
[12]
  cell viability: 80.9%
[13]
  cell viability: 77.2%
[14]
  cell viability: 85.2%
[15]
  cell viability: 90.7%
[16]
  cell viability: 84.1%
[17]
  cell viability: 75.7%
[18]
  cell viability: 92.2%
[19]
  cell viability: 85.4%
[20]
  cell viability: 90.7%
[21]
  cell viability: 83.9%
[22]
  cell viability: 90.6%
[23]
  cell viability: 86%
[24]
  cell viability: 68.8%
[25]
  cell viability: 98.7%
[26]
  cell viability: 92.7%
[27]
  cell viability: 104%
[28]
  cell viability: 107%
[29]
  cell viability: 90.8%
[30]
  cell viability: 90.2%
[31]
  cell viability: 104%
[32]
  cell viability: 88.3%
[33]
  cell viability: 73.9%

## CNC(=O)[C@H](CC/1=C/N=C\2/C=C\C\C=C12)NC(=O)[C@H](CC(C)C)CC(=O)NO
[1]
  cell viability: 104%
[2]
  cell viability: 103%
[3]
  cell viability: 108%
[4]
  cell viability: 111%
[5]
  cell viability: 120%
[6]
  cell viability: 104%
[7]
  cell viability: 112%
[8]
  cell viability: 118%
[9]
  cell viability: 120%
[10]
  cell viability: 105%
[11]
  cell viability: 101%
[12]
  cell viability: 111%
[13]
  cell viability: 134%
[14]
  cell viability: 122%
[15]
  cell viability: 133%
[16]
  cell viability: 117%
[17]
  cell viability: 118%
[18]
  cell viability: 116%
[19]
  cell viability: 110%
[20]
  cell viability: 132%
[21]
  cell viability: 120%
[22]
  cell viability: 114%
[23]
  cell viability: 95%
[24]
  cell viability: 99.2%
[25]
  cell viability: 104%
[26]
  cell viability: 100%
[27]
  cell viability: 113%
[28]
  cell viability: 88.9%
[29]
  cell viability: 99.7%
[30]
  cell viability: 102%
[31]
  cell viability: 94.4%
[32]
  cell viability: 102%
[33]
  cell viability: 90.1%

## CNC(=O)C1=CC=C(C)C(=C1)N2C(=C/C(=C(/Br)C2=O)OCC3=C(F)C=C(F)C=C3)\C
[1]
  cell viability: 109%
[2]
  cell viability: 116%
[3]
  cell viability: 123%
[4]
  cell viability: 106%
[5]
  cell viability: 126%
[6]
  cell viability: 123%
[7]
  cell viability: 131%
[8]
  cell viability: 130%
[9]
  cell viability: 125%
[10]
  cell viability: 124%
[11]
  cell viability: 120%
[12]
  cell viability: 110%
[13]
  cell viability: 127%
[14]
  cell viability: 124%
[15]
  cell viability: 122%
[16]
  cell viability: 124%
[17]
  cell viability: 116%
[18]
  cell viability: 131%
[19]
  cell viability: 139%
[20]
  cell viability: 116%
[21]
  cell viability: 113%
[22]
  cell viability: 101%
[23]
  cell viability: 115%
[24]
  cell viability: 118%
[25]
  cell viability: 136%
[26]
  cell viability: 136%
[27]
  cell viability: 134%
[28]
  cell viability: 155%
[29]
  cell viability: 148%
[30]
  cell viability: 131%
[31]
  cell viability: 109%
[32]
  cell viability: 120%
[33]
  cell viability: 103%

## CC[C@]1(O)C[C@@H]2CN(CCc3c([nH]c4ccccc34)[C@@](C(=O)OC)(c3cc4c(cc3OC)N(C)[C@H]3[C@@](O)(C(N)=O)[C@H](O)[C@]5(CC)C=CCN6CC[C@]43[C@@H]65)C2)C1
[1]
  cell viability: 123%
[2]
  cell viability: 110%
[3]
  cell viability: 114%
[4]
  cell viability: 106%
[5]
  cell viability: 89.2%
[6]
  cell viability: 43.2%
[7]
  cell viability: 26.3%
[8]
  cell viability: 20.5%
[9]
  cell viability: 20%
[10]
  cell viability: 15.7%
[11]
  cell viability: 6.67%
[23]
  cell viability: 118%
[24]
  cell viability: 104%
[25]
  cell viability: 124%
[26]
  cell viability: 124%
[27]
  cell viability: 97.8%
[28]
  cell viability: 44.8%
[29]
  cell viability: 26.6%
[30]
  cell viability: 24.3%
[31]
  cell viability: 20.4%
[32]
  cell viability: 16.3%
[33]
  cell viability: 5.01%

## COc1ccc2cc1Oc1ccc(cc1)C[C@H]1c3cc(c(OC)cc3CCN1C)Oc1c(OC)c(OC)cc3c1[C@H](C2)N(C)CC3
[1]
  cell viability: 123%
[2]
  cell viability: 120%
[3]
  cell viability: 135%
[4]
  cell viability: 107%
[5]
  cell viability: 111%
[6]
  cell viability: 123%
[7]
  cell viability: 108%
[8]
  cell viability: 82.6%
[9]
  cell viability: 130%
[10]
  cell viability: 102%
[11]
  cell viability: 86.8%
[12]
  cell viability: 124%
[13]
  cell viability: 122%
[14]
  cell viability: 115%
[15]
  cell viability: 144%
[16]
  cell viability: 127%
[17]
  cell viability: 126%
[18]
  cell viability: 120%
[19]
  cell viability: 88.9%
[20]
  cell viability: 116%
[21]
  cell viability: 105%
[22]
  cell viability: 72.5%
[23]
  cell viability: 125%
[24]
  cell viability: 117%
[25]
  cell viability: 113%
[26]
  cell viability: 125%
[27]
  cell viability: 107%
[28]
  cell viability: 135%
[29]
  cell viability: 105%
[30]
  cell viability: 95.6%
[31]
  cell viability: 114%
[32]
  cell viability: 89.5%
[33]
  cell viability: 64%

## OCc1ccc(-c2ccc(-c3ccc(CO)s3)o2)s1
[1]
  cell viability: 117%
[2]
  cell viability: 118%
[3]
  cell viability: 94.3%
[4]
  cell viability: 115%
[5]
  cell viability: 107%
[6]
  cell viability: 103%
[7]
  cell viability: 104%
[8]
  cell viability: 103%
[9]
  cell viability: 88.6%
[10]
  cell viability: 77.7%
[11]
  cell viability: 93.8%
[12]
  cell viability: 87.3%
[13]
  cell viability: 105%
[14]
  cell viability: 83.8%
[15]
  cell viability: 81.5%
[16]
  cell viability: 79.1%
[17]
  cell viability: 87.8%
[18]
  cell viability: 79.3%
[19]
  cell viability: 80.6%
[20]
  cell viability: 77.1%
[21]
  cell viability: 61.3%
[22]
  cell viability: 66.7%
[23]
  cell viability: 114%
[24]
  cell viability: 124%
[25]
  cell viability: 95.7%
[26]
  cell viability: 113%
[27]
  cell viability: 119%
[28]
  cell viability: 105%
[29]
  cell viability: 110%
[30]
  cell viability: 99.4%
[31]
  cell viability: 83.9%
[32]
  cell viability: 85.8%
[33]
  cell viability: 114%

## CC(C)Cc1ccc(C(C)C(=O)O)cc1 (stereo not given)
[1]
  cell viability: 68.7%
[2]
  cell viability: 84.7%
[3]
  cell viability: 80.1%
[4]
  cell viability: 78.6%
[5]
  cell viability: 84.9%
[6]
  cell viability: 90.7%
[7]
  cell viability: 82.2%
[8]
  cell viability: 78.3%
[9]
  cell viability: 71.3%
[10]
  cell viability: 85.6%
[11]
  cell viability: 26.4%
[12]
  cell viability: 90.1%
[13]
  cell viability: 69.4%
[14]
  cell viability: 80.9%
[15]
  cell viability: 91.3%
[16]
  cell viability: 89.4%
[17]
  cell viability: 81.9%
[18]
  cell viability: 98.8%
[19]
  cell viability: 87%
[20]
  cell viability: 95.4%
[21]
  cell viability: 77.2%
[22]
  cell viability: 22.8%
[23]
  cell viability: 93.5%
[24]
  cell viability: 84.4%
[25]
  cell viability: 89.5%
[26]
  cell viability: 90.9%
[27]
  cell viability: 87.5%
[28]
  cell viability: 98.3%
[29]
  cell viability: 99.5%
[30]
  cell viability: 98.6%
[31]
  cell viability: 100%
[32]
  cell viability: 77.5%
[33]
  cell viability: 35.7%
